Data: article doi:10.1101/2025.08.13.670122v1 (bioRxiv, 2025)
Like-named read-outs stand apart in the source and are kept apart here.

Target: T1, endogenous AT1R (Rattus norvegicus, UniProt P25095)
T1 construct: expressing low levels of endogenous AT1R; endogenous in cells; host or cells: rat primary VSMC, passages 13-15
T1 sequence (P25095 1-359): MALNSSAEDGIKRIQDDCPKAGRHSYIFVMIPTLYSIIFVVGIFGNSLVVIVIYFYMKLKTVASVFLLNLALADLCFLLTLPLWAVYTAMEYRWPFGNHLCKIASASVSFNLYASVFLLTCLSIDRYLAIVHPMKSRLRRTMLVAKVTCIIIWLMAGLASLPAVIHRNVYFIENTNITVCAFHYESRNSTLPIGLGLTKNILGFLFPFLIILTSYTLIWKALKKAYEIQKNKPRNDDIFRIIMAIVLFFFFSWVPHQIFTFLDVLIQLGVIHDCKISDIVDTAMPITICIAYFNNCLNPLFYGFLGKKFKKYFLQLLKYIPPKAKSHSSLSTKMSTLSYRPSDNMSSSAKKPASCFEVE
Test: PKC BRET sensor in rat primary VSMC with endogenous AT1R
Type: cell-based
Conditions: for Emax PKC in VSMCs (% AngII): PKC sensor, for 12 and TRV027 response at 10 μM; for EC50: adenoviral PKC BRET sensor, 1 min stimulation, mean ± SEM of at least three to five independent experiments, read-out: EC50 PKC in VSMCs
From the text: We next assessed the analogs’ ability to engage Gαq by assessing either the PKC or Rho responses in rat primary vascular smooth muscle cell (VSMC) culture, expressing low levels of endogenous AT1R (between 25–50 fmol/mg) (Figure 4, Table 6).
The coding regions of the PKC-c1b sensor, PKN-RBD-RlucII, and rGFPcaax were PCR-amplified and subcloned into the KpnI/XhoI sites of the pENTR3C vector (Invitrogen), respectively. These were then transferred into the adenoviral expression vector pAd/CMV/V5-DEST (Invitrogen), via gateway cloning (pAD-CMV-PKC-c1b, pAD-CMV-PKN-RBD-RLucII, and pAD-CMV-rGFPcaax). Viruses containing the sensor codes were generated following a previously outlined process.[49] […] The following day, cells were transfected with 4 µg of PacI-digested pAd5-CMVsensors using Lipofectamine 2000 (Invitrogen). After 7–10 days post-transfection, mature virus particles were gleaned via the collection of cells and media, which then underwent multiple cycles of freezing and thawing, followed by centrifugation. The harvested virus was amplified by re-infection on 100-mm dishes of confluent HEK293A cells, and harvested 48-72 h later. Viral titers were determined by serial dilution of adenovirus stock and subsequent infection of HEK293A cells in 96-well plates. 36 h after infection, cells were stained using an anti-hexon antibody (ab8249; Abcam), and hexon-expressing cells were tallied via fluorescence microscopy. The virus was then stored at −80°C. After this, rat VSMCs (between the 13th to 15th passages) were seeded at a density of 20,000 cells in each well of white 96-well plates 24 h before transduction with the viral vector. The cells were then transduced with the PKC sensor-adenovirus (3 μL per well) or Rho sensor (1 μL each per well of PKN-RBD-RLucII-adnovirus and rGFP-caax adenovirus). After 24 h, the medium was replaced. 48 h post-viral transduction, the cells were thoroughly washed with Tyrode’s buffer. Finally, BRET assays were carried out as detailed below.
On the day of the experiment, each well was washed with 80 µL of Tyrode’s buffer (140 mM NaCl, 2.7 mM KCl, 1 mM CaCl2, 12 mM NaHCO3, 5.6 mM D-glucose, 0.5 mM MgCl2, 0.37 mM NaH2PO4, 25 mM Hepes (pH 7.4)). This was followed by incubation for 1 h in Tyrode’s buffer at room temperature. For the Gαq, β-arrestin-2, and PKC biosensors used in HEK293 cells, coelenterazine 400A (at a final concentration of 5 μM) was added 10 min before stimulation. Cells were then stimulated with increasing doses of the indicated ligand, and BRET signals were measured using a Tristar2 (Berthold) microplate reader 10 min later. For the PKC and Rho biosensors in VSMCs, and the Rho biosensor in ΔG12/13 cells, cells were similarly stimulated with ligands for 1 min, 1 min 30 s, and 3 min, respectively, before BRET measurement. […] BRET signals were then measured using a Synergy2 (BioTek) microplate reader. The applied filter set was 410/80 nm and 515/30 nm, designed to detect the light emissions of RlucII (Renilla luciferase) (donor) and rGFP (acceptor), respectively.

| Emax PKC in VSMCs (% AngII) | EC50 (SEM) [nM] | EC50 [nM] | Compound |
| --- | --- | --- | --- |
| 104 | 79.8 ± 17.7 | – | CC[C@H](C)[C@H](NC(=O)[C@H](Cc1ccc(O)cc1)NC(=O)[C@@H](NC(=O)[C@H](CCCNC(=N)N)NC(=O)[C@@H](N)CC(=O)O)C(C)C)C(=O)N[C@@H](Cc1c[nH]cn1)C(=O)N1CCC[C@H]1C(=O)N[C@@H](Cc1ccc(OC)cc1)C(=O)O [compound 11] |
| 13 | – | > 10000 | CC[C@H](C)[C@H](NC(=O)[C@H](Cc1ccc(O)cc1)NC(=O)[C@@H](NC(=O)[C@H](CCCNC(=N)N)NC(=O)[C@@H](N)CC(=O)O)C(C)C)C(=O)N[C@@H](Cc1c[nH]cn1)C(=O)N1CCC[C@H]1C(=O)N[C@@H](Cc1ccc(OCc2ccccc2)cc1)C(=O)O [compound 12] |
